# Test results as given in ChEMBL document CHEMBL4145442, “Novel LCK/FMS inhibitors based on phenoxypyrimidine scaffold as potential treatment for inflammatory disorders” (Eur J Med Chem, 2017).
# The source made the active and inactive calls. No cut-off for these calls is given here.
# Experiments:
# [1] = molecular target: Homeodomain-interacting protein kinase 1 (Homo sapiens, UniProt Q86Z02); assay: Inhibition of HIPK1 (unknown origin)
# [2] = molecular target: T1, Tyrosine-protein kinase Lck (Homo sapiens, UniProt P06239); assay: Inhibition of LCK (unknown origin) assessed as remaining activity at 3.33 x 10^-6 M after 120 mins in presence of 33P-ATP (reference value: […]% to […]%); settings: at 3.33 µM
# Target sequence in this assay (P06239 2-509 limits assumed): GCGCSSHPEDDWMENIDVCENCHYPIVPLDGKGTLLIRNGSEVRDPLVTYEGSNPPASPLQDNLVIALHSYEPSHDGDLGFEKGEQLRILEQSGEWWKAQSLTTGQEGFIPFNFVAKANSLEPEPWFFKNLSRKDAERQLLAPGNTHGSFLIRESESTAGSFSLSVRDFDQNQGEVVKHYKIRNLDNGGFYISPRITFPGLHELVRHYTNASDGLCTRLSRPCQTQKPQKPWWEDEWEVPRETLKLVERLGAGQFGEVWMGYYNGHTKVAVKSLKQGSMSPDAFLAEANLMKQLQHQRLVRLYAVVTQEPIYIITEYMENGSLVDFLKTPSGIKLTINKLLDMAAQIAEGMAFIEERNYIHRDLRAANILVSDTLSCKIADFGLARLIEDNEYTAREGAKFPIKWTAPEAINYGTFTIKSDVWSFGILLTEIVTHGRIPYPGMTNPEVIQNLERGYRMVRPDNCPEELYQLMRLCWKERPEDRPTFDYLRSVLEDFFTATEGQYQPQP
# [3] = molecular target: T1, Tyrosine-protein kinase Lck; assay: Inhibition of LCK (unknown origin) after 120 mins in presence of 33P-ATP
# Target sequence in this assay (P06239 whole entry): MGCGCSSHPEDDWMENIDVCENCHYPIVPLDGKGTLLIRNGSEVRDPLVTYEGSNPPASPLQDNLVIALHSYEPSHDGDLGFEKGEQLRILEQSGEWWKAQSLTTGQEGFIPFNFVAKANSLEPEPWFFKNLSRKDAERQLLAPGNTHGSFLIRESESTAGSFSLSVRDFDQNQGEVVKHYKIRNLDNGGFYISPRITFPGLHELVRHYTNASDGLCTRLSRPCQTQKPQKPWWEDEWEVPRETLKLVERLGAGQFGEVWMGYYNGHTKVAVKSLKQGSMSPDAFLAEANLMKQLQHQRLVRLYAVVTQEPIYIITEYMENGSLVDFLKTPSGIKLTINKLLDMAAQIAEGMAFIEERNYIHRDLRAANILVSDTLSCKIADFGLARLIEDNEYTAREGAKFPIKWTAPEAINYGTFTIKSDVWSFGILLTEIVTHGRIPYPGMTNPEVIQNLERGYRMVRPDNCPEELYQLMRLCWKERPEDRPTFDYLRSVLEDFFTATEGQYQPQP
# [4] = molecular target: T1, Tyrosine-protein kinase Lck; assay: Inhibition of LCK (unknown origin) assessed as remaining activity at 3 x 10^-5 M after 120 mins in presence of 33P-ATP (reference value: […]% to […]%); settings: at 30 µM
# Target sequence in this assay (P06239 2-509 limits assumed): as the sequence (P06239 2-509 limits assumed) above
# [5] = molecular target: T1, Tyrosine-protein kinase Lck; assay: Inhibition of LCK (unknown origin) assessed as remaining activity at 1 x 10^-5 M after 120 mins in presence of 33P-ATP (reference value: […]% to […]%); settings: at 10 µM
# Target sequence in this assay (P06239 2-509 limits assumed): as above
# [6] = molecular target: T1, Tyrosine-protein kinase Lck; assay: Inhibition of LCK (unknown origin) assessed as remaining activity at 3.7 x 10^-7 M after 120 mins in presence of 33P-ATP (reference value: […]% to […]%); settings: at 0.37 µM
# Target sequence in this assay (P06239 2-509 limits assumed): as above
# [7] = molecular target: T1, Tyrosine-protein kinase Lck; assay: Inhibition of LCK (unknown origin) assessed as remaining activity at […] x 10^-6 M after 120 mins in presence of 33P-ATP (reference value: […]% to […]%)
# Target sequence in this assay (P06239 2-509 limits assumed): as above
# RAW264.7 [8] = assay: Antiinflammatory activity against mouse RAW264.7 cells assessed as inhibition of LPS induced COX-2 protein expression at 3 to 12 uM after 24 hrs by Western blot analysis; format: functional, cell-based
# RAW264.7 [9] = assay: Potency index, ratio of L-NIL IC50 to compound IC50 for inhibition of LPS-induced NO production in mouse RAW264.7 cells; format: functional
# RAW264.7 [10] = assay: Antiinflammatory activity in mouse RAW264.7 cells assessed as inhibition of LPS-induced PGE2 production after 24 hrs by enzyme immunoassay; format: functional, cell-based; settings: RAW264.7, 24 h
# RAW264.7 [11] = assay: Inhibition of LPS-induced NO production in mouse RAW264.7 cells after 24 hrs by Griess assay; format: functional, cell-based; settings: RAW264.7, 24 h
# [12] = molecular target: Macrophage colony-stimulating factor 1 receptor (Homo sapiens, UniProt P07333); assay: Inhibition of FMS (unknown origin) after 120 mins in presence of 33P-ATP
# Macrophage colony-stimulating factor 1 receptor, sequence (P07333 whole entry): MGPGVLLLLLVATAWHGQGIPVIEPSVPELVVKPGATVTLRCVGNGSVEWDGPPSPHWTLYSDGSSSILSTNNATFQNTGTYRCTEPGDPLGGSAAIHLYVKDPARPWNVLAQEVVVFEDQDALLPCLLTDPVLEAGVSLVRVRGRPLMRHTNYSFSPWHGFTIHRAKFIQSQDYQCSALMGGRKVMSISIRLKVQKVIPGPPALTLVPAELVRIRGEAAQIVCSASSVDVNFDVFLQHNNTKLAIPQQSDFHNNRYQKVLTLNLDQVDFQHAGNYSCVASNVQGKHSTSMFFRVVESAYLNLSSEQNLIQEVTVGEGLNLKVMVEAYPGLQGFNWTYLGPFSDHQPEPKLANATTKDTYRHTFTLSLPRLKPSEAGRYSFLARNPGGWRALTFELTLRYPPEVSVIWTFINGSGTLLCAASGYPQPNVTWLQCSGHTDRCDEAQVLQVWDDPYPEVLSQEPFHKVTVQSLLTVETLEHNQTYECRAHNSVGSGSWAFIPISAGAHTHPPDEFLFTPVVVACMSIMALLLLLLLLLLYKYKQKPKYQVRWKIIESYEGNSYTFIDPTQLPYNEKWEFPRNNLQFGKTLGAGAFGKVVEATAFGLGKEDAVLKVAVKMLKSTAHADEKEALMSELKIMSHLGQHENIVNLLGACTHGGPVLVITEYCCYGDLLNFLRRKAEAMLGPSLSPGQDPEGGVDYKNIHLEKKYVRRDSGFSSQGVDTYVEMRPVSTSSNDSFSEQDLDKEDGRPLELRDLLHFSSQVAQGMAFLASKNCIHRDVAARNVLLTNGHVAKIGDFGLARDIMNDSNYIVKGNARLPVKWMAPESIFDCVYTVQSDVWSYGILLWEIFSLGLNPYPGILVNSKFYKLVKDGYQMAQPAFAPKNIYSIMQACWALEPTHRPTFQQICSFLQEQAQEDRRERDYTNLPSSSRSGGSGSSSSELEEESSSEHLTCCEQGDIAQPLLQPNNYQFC
# [13] = (§1) Cytotoxicity against mouse RAW264.7 cells after 4 hrs by MTT assay; format: cell-based; settings: mouse, RAW264.7 cells
# RAW264.7 [14] = assay: Antiinflammatory activity against mouse RAW264.7 cells assessed as inhibition of LPS-induced iNOS protein expression at 3 to 12 uM after 24 hrs by Western blot analysis; format: functional, cell-based
# [15] = molecular target: High affinity nerve growth factor receptor (Homo sapiens, UniProt P04629)
# High affinity nerve growth factor receptor, sequence (P04629 whole entry): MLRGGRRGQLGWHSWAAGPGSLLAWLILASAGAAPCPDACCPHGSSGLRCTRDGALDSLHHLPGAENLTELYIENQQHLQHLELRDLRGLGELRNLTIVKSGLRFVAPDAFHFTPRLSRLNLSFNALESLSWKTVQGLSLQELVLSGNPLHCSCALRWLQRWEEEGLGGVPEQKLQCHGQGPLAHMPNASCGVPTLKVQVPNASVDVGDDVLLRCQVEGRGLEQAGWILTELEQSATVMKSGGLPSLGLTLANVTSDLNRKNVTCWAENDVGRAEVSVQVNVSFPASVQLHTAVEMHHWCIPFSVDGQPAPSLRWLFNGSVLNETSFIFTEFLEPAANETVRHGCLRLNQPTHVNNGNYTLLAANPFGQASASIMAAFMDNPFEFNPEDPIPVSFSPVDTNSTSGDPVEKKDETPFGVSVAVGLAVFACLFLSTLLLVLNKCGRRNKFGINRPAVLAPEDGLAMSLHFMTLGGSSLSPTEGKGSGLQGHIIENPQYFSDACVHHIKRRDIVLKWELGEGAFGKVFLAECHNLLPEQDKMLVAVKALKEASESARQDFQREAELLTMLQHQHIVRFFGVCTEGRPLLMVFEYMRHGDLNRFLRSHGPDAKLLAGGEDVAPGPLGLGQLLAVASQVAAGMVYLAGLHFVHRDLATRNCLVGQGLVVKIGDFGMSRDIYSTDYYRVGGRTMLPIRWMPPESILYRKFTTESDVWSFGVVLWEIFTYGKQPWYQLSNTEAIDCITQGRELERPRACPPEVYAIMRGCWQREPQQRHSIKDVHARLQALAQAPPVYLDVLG
# Description: Inhibition of TRKA (unknown origin)
# [16] = molecular target: Tyrosine-protein kinase Lyn (Homo sapiens, UniProt P07948)
# Tyrosine-protein kinase Lyn, sequence (P07948 whole entry): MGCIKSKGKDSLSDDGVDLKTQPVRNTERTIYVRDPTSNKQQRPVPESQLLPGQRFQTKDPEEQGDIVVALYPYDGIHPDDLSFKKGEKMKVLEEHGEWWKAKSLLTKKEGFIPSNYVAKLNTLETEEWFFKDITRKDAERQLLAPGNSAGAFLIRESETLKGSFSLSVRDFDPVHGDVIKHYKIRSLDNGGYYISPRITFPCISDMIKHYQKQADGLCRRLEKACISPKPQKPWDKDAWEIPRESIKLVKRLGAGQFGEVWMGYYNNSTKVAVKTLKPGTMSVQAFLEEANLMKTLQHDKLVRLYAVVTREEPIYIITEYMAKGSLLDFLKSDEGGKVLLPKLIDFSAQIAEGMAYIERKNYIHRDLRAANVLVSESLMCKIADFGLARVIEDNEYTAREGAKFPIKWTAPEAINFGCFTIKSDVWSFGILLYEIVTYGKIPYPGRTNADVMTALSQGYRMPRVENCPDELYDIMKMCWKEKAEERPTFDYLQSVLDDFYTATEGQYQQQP
# Description: Inhibition of LYN (unknown origin)
# RAW264.7 [17] = assay: as §1; format: cell-based; settings: Mus musculus, RAW264.7, 4 h
# Homeodomain-interacting protein kinase 1, sequence (Q86Z02 whole entry): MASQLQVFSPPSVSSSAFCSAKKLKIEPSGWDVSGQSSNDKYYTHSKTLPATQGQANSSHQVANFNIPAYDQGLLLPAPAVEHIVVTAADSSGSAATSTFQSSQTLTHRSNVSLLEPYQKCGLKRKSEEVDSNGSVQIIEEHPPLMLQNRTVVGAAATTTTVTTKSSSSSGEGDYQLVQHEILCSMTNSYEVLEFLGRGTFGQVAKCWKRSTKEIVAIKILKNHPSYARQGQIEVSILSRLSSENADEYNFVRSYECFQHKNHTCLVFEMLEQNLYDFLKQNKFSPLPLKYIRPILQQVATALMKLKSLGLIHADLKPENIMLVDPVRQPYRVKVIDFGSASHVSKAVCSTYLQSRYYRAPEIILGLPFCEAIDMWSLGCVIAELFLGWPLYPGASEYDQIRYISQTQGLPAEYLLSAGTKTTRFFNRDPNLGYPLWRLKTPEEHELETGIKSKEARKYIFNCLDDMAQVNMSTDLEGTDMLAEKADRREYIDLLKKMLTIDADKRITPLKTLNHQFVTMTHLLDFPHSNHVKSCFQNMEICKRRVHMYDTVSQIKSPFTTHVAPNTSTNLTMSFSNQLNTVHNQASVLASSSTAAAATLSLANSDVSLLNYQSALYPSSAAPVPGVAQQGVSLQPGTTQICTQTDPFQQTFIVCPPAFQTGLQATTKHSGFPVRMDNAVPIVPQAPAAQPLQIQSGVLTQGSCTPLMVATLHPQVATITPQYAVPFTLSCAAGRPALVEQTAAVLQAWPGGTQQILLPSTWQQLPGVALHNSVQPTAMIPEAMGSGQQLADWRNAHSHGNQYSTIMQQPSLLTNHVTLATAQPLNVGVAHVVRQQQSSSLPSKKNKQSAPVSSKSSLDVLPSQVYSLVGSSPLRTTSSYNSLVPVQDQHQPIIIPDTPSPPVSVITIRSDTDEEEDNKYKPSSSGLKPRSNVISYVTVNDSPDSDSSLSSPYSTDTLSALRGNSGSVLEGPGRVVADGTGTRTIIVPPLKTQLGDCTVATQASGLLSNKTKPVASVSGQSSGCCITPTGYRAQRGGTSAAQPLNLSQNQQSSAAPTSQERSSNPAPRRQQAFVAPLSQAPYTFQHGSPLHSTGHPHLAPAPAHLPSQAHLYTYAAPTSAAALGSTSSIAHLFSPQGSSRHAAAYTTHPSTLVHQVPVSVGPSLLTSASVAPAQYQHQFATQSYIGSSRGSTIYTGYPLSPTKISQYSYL
SMILES,IC50 [1] [nM],Activity [2] [%],IC50 [3] [nM],Activity [4] [%],Activity [5] [%],Activity [6] [%],Activity [7] [%],IC50 [12] [nM],inhibition (RAW264.7 [8]),Ratio IC50 (RAW264.7 [9]),IC50 (RAW264.7 [10]) [nM],IC50 (RAW264.7 [11]) [nM],IC80 at 4 h [13] [nM],inhibition (RAW264.7 [14]),IC50 [15] [nM],IC50 [16] [nM],IC50 (RAW264.7 [17]) [nM]
Cn1cc(C2=C(c3cn(CCCSC(=N)N)c4ccccc34)C(=O)NC2=O)c2ccccc21,0.367,,,,,,,,,,,,,,,,
COc1ccc(Oc2nc(Nc3ccc(N4CCOCC4)cc3)ncc2/N=C/c2cc(OC)cc(OC)c2)cc1,,30.3 to 32.9,22,44.8 to 48.5,27.4 to 28.3,53.2,37.8 to 39.9,4.6,inactive,>2.5,5220,10300,> 12000,Active,,,
COc1cc(C)ccc1Oc1nc(Nc2ccc(N3CCOCC3)cc2)ncc1/N=C/c1cccc(Cl)c1,,15.3 to 16.8,62,28.6 to 36.9,11.3 to 14.9,32.6 to 35.6,19.6 to 23.2,,,,,> 1000,> 1000,,,,
COc1cc(/C=N/c2cnc(Nc3ccc(N4CCOCC4)cc3)nc2Oc2ccc(C)cc2OC)cc(OC)c1,,10.3 to 12.6,106,4.38 to 7.22,7.1 to 8.37,28.8 to 37.5,21.3 to 26.9,883,,,,> 1000,> 1000,,,,
COc1cc(C)ccc1Oc1nc(Nc2ccc(N3CCOCC3)cc2)ncc1/N=C/c1cc(C(F)(F)F)cc(C(F)(F)F)c1,,24.7 to 27.4,6,24.1 to 28.5,55.5 to 56.8,39.7 to 40.7,19.2 to 20.1,,,,,,,,,,
COc1cc(Nc2ncc(NC(=O)c3cc(OC)cc(OC)c3)c(Oc3ccc(C)cc3OC)n2)cc(OC)c1,,100 to 101,> 100000,92.3 to 96.8,95.7 to 97.5,98.3 to 103,99.6 to 102,,,,,,,,,,
C/C(=N/N)NCCCC[C@H](N)C(=O)O,,,,,,,,,,,,28300,,,,,
CS(=O)(=O)Nc1ccc([N+](=O)[O-])cc1OC1CCCCC1 [NS-398],,,,,,,,,,,7.23,,,,,,
COc1cc(C)ccc1Oc1nc(Nc2ccc(N3CCOCC3)cc2)ncc1/N=C/c1cc(Cl)cc(Cl)c1,,32.8 to 33.6,6.5,38.9 to 40.7,37.1,35.8 to 36.1,26.7 to 26.9,,,,,> 1000,987,,,,
COc1cc(C)ccc1Oc1nc(Nc2ccc(N3CCOCC3)cc2)ncc1NCc1cccc(OC(F)(F)F)c1,,68.8 to 76.6,22100,44.9 to 45.8,61.3 to 65.9,92.7 to 92.9,83.5 to 91.3,,,,,,,,,,
COc1cc(C)ccc1Oc1nc(Nc2ccc(N3CCOCC3)cc2)ncc1NCc1ccc(Cl)cc1,,11.2 to 11.3,312,2.49 to 2.9,7.08 to 7.66,43.1 to 46.1,20 to 20.2,,,,,,,,,,
COc1cc(C)ccc1Oc1nc(Nc2ccc(N3CCOCC3)cc2)ncc1/N=C/c1cccc(OC(C)C)c1,,20 to 24.3,39,12.4 to 16.2,19.8 to 20.8,37.5 to 37.9,27.6 to 29.2,,,,,> 5000,> 6000,,,,
COc1cc(NC(=O)Nc2cnc(Nc3ccc(N4CCOCC4)cc3)nc2Oc2ccc(C)cc2OC)cc(OC)c1,,,502,,,,,,,,,> 80000,,,8540,4200,> 80000
COc1ccc(OC)c(/C=N/c2cnc(Nc3ccc(N4CCOCC4)cc3)nc2Oc2ccc(C)cc2OC)c1,,12.8 to 13.1,110,8.37 to 10.1,12.5 to 14.4,38.7 to 38.9,19.9 to 21.8,,,,,> 1000,> 1000,,,,
COc1cc(C)ccc1Oc1nc(Nc2ccc(N3CCOCC3)cc2)ncc1/N=C/c1ccc(Cl)cc1,,14.7,54,16.8,10.6,38.2,19.1,,,,,> 5000,> 6000,,,,
COc1cc(C)ccc1Oc1nc(Nc2ccc(N3CCOCC3)cc2)ncc1/N=C/c1cccc(OC(F)(F)F)c1,,41.1 to 43.7,33.5,41.7 to 50.1,49 to 54.7,39.2 to 39.8,26.8 to 27.9,,,,,> 20000,< 5000,,,,
COc1cc(C)ccc1Oc1nc(Nc2ccc(N3CCOCC3)cc2)ncc1NCc1ccc(OC(F)(F)F)cc1,,45 to 47.1,3300,21.3 to 22.5,43.7 to 45.1,84.9 to 85.4,59.5 to 61.6,,,,,,,,,,
COc1cc(NC(=O)Nc2cnc(Nc3cc(OC)cc(OC)c3)nc2Oc2ccc(C)cc2OC)cc(OC)c1,,90.1 to 95.8,41400,60.4 to 61.1,77.3 to 82,103 to 108,101 to 106,,,,,,,,,,
COc1cc(Nc2ncc(NC(=O)Nc3c(Cl)cccc3Cl)c(Oc3ccc(C)cc3OC)n2)cc(OC)c1,,85.2 to 88.2,58400,61.5 to 61.7,72.6 to 81.8,93.7 to 96,94 to 95.5,,,,,,,,,,
COc1cc(C)ccc1Oc1nc(Nc2ccc(N3CCOCC3)cc2)ncc1/N=C/c1ccccc1Cl,,13.4 to 15.1,225,6.29 to 7.37,11.3 to 11.5,42.5 to 42.8,26.9 to 29.3,,,,,> 1000,> 1000,,,,
COc1cc(C)ccc1Oc1nc(Nc2ccc(N3CCOCC3)cc2)ncc1NCc1cc(C(F)(F)F)cc(C(F)(F)F)c1,,66.6 to 71,11600,41.1 to 41.7,55.1 to 58.1,104,88.1 to 91.2,,,,,,,,,,

# More lines, main results first:
IC50 [1] [nM],Activity [2] [%],IC50 [3] [nM],Activity [4] [%],Activity [5] [%],Activity [6] [%],Activity [7] [%],IC50 [12] [nM],SMILES,inhibition (RAW264.7 [8]),Ratio IC50 (RAW264.7 [9]),IC50 (RAW264.7 [10]) [nM],IC50 (RAW264.7 [11]) [nM],IC80 at 4 h [13] [nM],inhibition (RAW264.7 [14]),IC50 [15] [nM],IC50 [16] [nM],IC50 (RAW264.7 [17]) [nM]
,54.2 to 56,5480,35.9 to 36.2,33.8 to 33.9,97.2 to 97.4,82.2 to 82.9,,COc1ccccc1NC(=O)Nc1cnc(Nc2ccc(N3CCOCC3)cc2)nc1Oc1ccc(C)cc1OC,,,,,,,,,
,80.2 to 80.7,> 100000,65.4 to 70,70.1 to 74.8,98.6 to 101,90.9 to 97.7,,COc1cc(C)ccc1Oc1nc(Nc2ccc(N3CCOCC3)cc2)ncc1NC(=O)Nc1cc(Cl)cc(Cl)c1,,,,,,,,,
,58.4 to 60,12100,49.4 to 59.3,43.8 to 52.2,83.1 to 91.7,61.8 to 72.5,14,COc1cc(/C=N/c2cnc(Nc3ccc(N4CCOCC4)cc3)nc2Oc2ccc(C(F)(F)F)cc2)cc(OC)c1,,,,,,,,,
,83.8 to 90.7,> 100000,74.2 to 74.8,78.1 to 84.5,96 to 100,89.3 to 89.9,,COc1cc(NC(=O)Nc2cnc(Nc3ccc(N4CCOCC4)cc3)nc2Oc2ccc(C(F)(F)F)cc2)cc(OC)c1,,,,,,,,,
,42.7 to 47.8,3170,65.3 to 69.2,39.9 to 41,76.7 to 83.1,62.5 to 64.3,21,COc1cc(/C=N/c2cnc(Nc3ccc(N4CCOCC4)cc3)nc2Oc2ccc(F)cc2)cc(OC)c1,,,,,,,,,
,91 to 91.3,> 100000,83.5 to 89.8,89.7 to 95.1,95.3 to 99.2,96 to 98,,COc1cc(C)ccc1Oc1nc(Nc2ccc(N3CCOCC3)cc2)ncc1NC(=O)Nc1cc(C(F)(F)F)cc(C(F)(F)F)c1,,,,,,,,,
,96.5 to 99.7,> 100000,90.7 to 95.4,92.4 to 97.2,96.3 to 102,98 to 102,,COc1ccc(NC(=O)Nc2cnc(Nc3cc(OC)cc(OC)c3)nc2Oc2ccc(C)cc2OC)cc1,,,,,,,,,
,77.8 to 81.3,71100,52.5 to 61.6,68.9 to 70.1,83.2 to 90.3,84 to 87.5,,COc1cc(NC(=O)Nc2cnc(Nc3ccc(N4CCOCC4)cc3)nc2Oc2ccc(F)cc2)cc(OC)c1,,,,,,,,,
,57.6 to 66.5,7970,62.1 to 63.2,42.1 to 49.3,78.7 to 86.2,64.7 to 71,,COc1cc(NC(=O)Nc2cnc(Nc3ccc(N4CCOCC4)cc3)nc2Oc2cccc(OC)c2)cc(OC)c1,,,,,,,,,
,75.6 to 81.8,17400,34.8 to 38.1,58.3 to 62.7,93.2 to 97.7,86.8 to 89.4,,COc1cc(C)ccc1Oc1nc(Nc2ccc(N3CCOCC3)cc2)ncc1NC(=O)Nc1c(Cl)cccc1Cl,,,,,,,,,
,67.3 to 72.8,10300,39 to 39.6,46.5 to 47,99.1 to 99.3,86.7 to 89,,COc1cc(OC)cc(C(=O)Nc2cnc(Nc3ccc(N4CCOCC4)cc3)nc2Oc2ccc(C)cc2OC)c1,,,,,,,,,
,34.8 to 36.1,1860,24 to 26.5,25.4 to 28.1,74.3 to 74.7,52.6 to 55.2,8.6,COc1cc(/C=N/c2cnc(Nc3ccc(N4CCOCC4)cc3)nc2Oc2cccc(OC)c2)cc(OC)c1,,,,,,,,,
